Tests used:
PC-3 tumor xenografts = conditions: mouse, in vivo, 1 h; cited from earlier work
GRPR = target: T1, GRPR (Homo sapiens, UniProt P30550); experiment: Fluorometric intracellular calcium release assay in PC-3 cells; format: cell-based; conditions: 50 nM, n = 3
T1 construct: Known to overexpress GRPR, the PC-3 cell line, a human prostate cancer cell line; host or cells: PC-3 human prostate cancer cells
Procedure: Following previously published procedures, 5 × 10^4 PC-3 cells in 100 μL of growth media were seeded per well in a 96-well clear-bottom black plate 24 h prior to the assay. A loading buffer (100 μL/well) containing a calcium-sensitive dye (FLIPR Calcium 6 assay kit) was added to the 96-well plate. After incubation at 37 °C for 2 h, the plate was placed in a FlexStation 3 microplate reader (Molecular Devices, San Jose, CA, USA). TacsBOMB2 derivatives (50 nM), [D-Phe^6,Leu-NHEt^13,des-Met^14]Bombesin(6-14) (50 nM, antagonist control), bombesin (50 nM, agonist control), adenosine triphosphate (ATP, 50 nM, positive control), or DPBS (blank control) was added, and the fluorescent signals were acquired for 2 min (λEx = 485 nm; λEm = 525 nm; n = 3). The relative fluorescent units (RFUs = max − min) were measured to determine the agonistic/antagonistic properties.

T1 sequence (P30550 whole entry): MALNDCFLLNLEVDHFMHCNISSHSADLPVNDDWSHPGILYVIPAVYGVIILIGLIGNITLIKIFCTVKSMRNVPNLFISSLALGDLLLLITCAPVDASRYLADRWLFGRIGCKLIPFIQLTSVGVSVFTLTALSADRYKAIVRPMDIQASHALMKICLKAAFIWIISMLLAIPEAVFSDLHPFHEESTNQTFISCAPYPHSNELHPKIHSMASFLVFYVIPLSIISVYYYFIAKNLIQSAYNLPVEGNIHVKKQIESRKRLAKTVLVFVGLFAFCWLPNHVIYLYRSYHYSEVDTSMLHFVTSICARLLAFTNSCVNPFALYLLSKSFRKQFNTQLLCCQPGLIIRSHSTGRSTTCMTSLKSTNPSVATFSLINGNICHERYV

For “[^68Ga]Ga-DOTA-Pip-D-Phe^6-Gln^7-Trp^8-Ala^9-Val^10-Gly^11-His^12-Leu^13ψThz^14-NH2 [[^68Ga]Ga-TacsBOMB2]”, the Adrenal glands uptake (PC-3 tumor xenografts) is given as 0.57 ± 0.40 %ID/g, the Blood uptake (PC-3 tumor xenografts) is given as 0.76 ± 0.21 %ID/g and the Bone uptake (PC-3 tumor xenografts) is given as 0.19 ± 0.06 %ID/g. The Brain uptake (PC-3 tumor xenografts) was 0.05 ± 0.03 %ID/g, the Fat uptake (PC-3 tumor xenografts) was 0.09 ± 0.03 %ID/g and the Heart uptake (PC-3 tumor xenografts) was 0.27 ± 0.08 %ID/g. For the same molecule, the Kidneys uptake (PC-3 tumor xenografts) was 2.51 ± 0.59 %ID/g, the Large intestine uptake (PC-3 tumor xenografts) was 0.37 ± 0.16 %ID/g and the Liver uptake (PC-3 tumor xenografts) was 2.61 ± 0.70 %ID/g. For the same molecule, the Lungs uptake (PC-3 tumor xenografts) was 0.75 ± 0.52 %ID/g, the Muscle uptake (PC-3 tumor xenografts) was 0.15 ± 0.05 %ID/g and the PC-3 tumor uptake (PC-3 tumor xenografts) was 10.2 ± 2.27 %ID/g. The Pancreas uptake (PC-3 tumor xenografts) was 2.81 ± 0.78 %ID/g, the Small intestine uptake (PC-3 tumor xenografts) was 1.04 ± 0.30 %ID/g and the Spleen uptake (PC-3 tumor xenografts) was 0.47 ± 0.17 %ID/g. The Stomach uptake (PC-3 tumor xenografts) was 0.32 ± 0.08 %ID/g and the Testes uptake (PC-3 tumor xenografts) was 0.19 ± 0.05 %ID/g.

In the case of `Nc1ncnc2c1ncn2[C@@H]1O[C@H](COP(=O)(O)OP(=O)(O)OP(=O)(O)O)[C@@H](O)[C@H]1O` [ATP, adenosine triphosphate], the “Ca2+ efflux” value (GRPR) was 222 ± 21.7 RFUs.

In the case of bombesin, the “Ca2+ efflux” value (GRPR) was 499 ± 73.4 RFUs.

With “[D-Phe^6,Leu-NHEt^13,des-Met^14]Bombesin(6-14)” the “Ca2+ efflux” value (GRPR) was 38.2 ± 7.20 RFUs.

From article PMC11124507, “Synthesis and Evaluation of Novel ^68Ga-Labeled [D-Phe^6,Leu^13ψThz^14]bombesin(6-14) Analogs for Cancer Imaging with Positron Emission Tomography” (Pharmaceuticals, 2024)
